The numbers were not newly measured in article PMC11676896, “Protective Action of Cannabidiol on Tiamulin Toxicity in Humans—In Vitro Study” (International Journal of Molecular Sciences, 2024), which cites them from elsewhere.

One series has as its system CYP1A1. Further details: method as in PMID 26187180. Conditions: cited from earlier work.
On the set-up of series [1]: method as in previous studies. The settings on record: CBD 1.56 and 3.125 µg/mL; ref previous studies; cited from earlier work.

As to `C=C(C)[C@@H]1CCC(C)=C[C@H]1c1c(O)cc(CCCCC)cc1O` [CBD, cannabidiol], the “induction of CYP1A1 expression” value with CYP1A1 is on record as “strongest inducer of CYP1A1 expression”. Besides, in series [1], the “cell viability with CBD alone” value is given as “did not show a decrease in cell viability”.
